Assay results reported in US11691992B2 (Anacor Pharmaceuticals, Inc., priority 2017, dated 2023).

Experiments:
Type in all cases: cell-based
[1] = system: IL3000 T. congolense (drug sensitive) strain; test: In vitro Alamar Blue 72 h drug sensitivity assay for T. congolense; conditions: Trypanosoma congolense; bloodstream form, 69 h + 3 h resazurin, 34° C.; classes A-C; read-out: IC50: I Org. Growth T. congolense IL-3000, 3 d
Procedure, shortened: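 Bloodstream-form trypanosomes in HMI medium with 20% bovine serum, exposed to compound for 69 h at 34 °C, 5% CO2, then resazurin for 3 h more. Fluorescence read at 536/588 nm. IC50 from 11-point sigmoidal dose-response curves, at least three independent runs.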

[2] = system: STIB719/ILRAD560 T. vivax (drug sensitive) strain; test: Ex vivo Alamar Blue 48 h drug sensitivity assay for T. vivax; conditions: Trypanosoma vivax, ex vivo bloodstream forms from mouse, 45 hrs + 3 hrs resazurin, read-out: IC50: I Hypoxanthine Incorporation T. vivax STIB 719/ILRA D 560, 2 d
Protocol: Example 109. Ex Vivo Alamar Blue 48 h Drug Sensitivity Assay for T. vivax
[…] Test compounds were prepared as 10 mg/mL DMSO stocks for each assay run. Compounds were assayed in at least three separate, independent test runs and an 11-point dilution curve was used to determine the IC50 values. Bloodstream form trypanosomes were propagated and harvested from a highly parasitemic mouse (via cardiac puncture) and were incubated with test compounds for 45 hrs at 37° C. in a humidified atmosphere containing 5% CO2, supported in HMI media containing 20% bovine serum. […] Plates were then read using a fluorescent plate reader (Spectramax, Gemini XS, Bucher Biotec, Basel, Switzerland) using an excitation wavelength of 536 nm and an emission wavelength of 588 nm. Data points were averaged to generate sigmoidal dose-response curves and IC50 values were determined using Softmax Pro 5.2 software.

[3] = system: bloodstream forms of T. b. rhodesiense STIB 900; test: T. brucei rhodesiense STIB 900 growth inhibition assay; conditions: Trypanosoma brucei; bloodstream forms, 72 h, Alamar Blue; protocol of Example 110; read-out: IC50: I Org. Growth T. brucei rhodesiense STIB 900, 3 d
Procedure, shortened: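 Bloodstream-form STIB 900 (10^4/well) were cultured in supplemented MEM with 15% horse serum and compound (90 to 0.123 μg/ml, 3-fold steps) for 72 h at 37 °C, 5% CO2. Viability was read by Alamar Blue fluorescence (ex 536/em 588 nm) after a further 2-4 h.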

[4] = system: L. infantum MHOM/MA(BE)/67 amastigotes in primary peritoneal mouse macrophages; test: Leishmania infantum intracellular amastigote assay in mouse macrophages; conditions: Macrophage, 120 h, amastigotes in primary peritoneal mouse macrophages, 5 d, Giemsa staining, read-out: Inhibition of Organism Growth in Leishmania infantum MHOM/MA/BE/67, 5 d
Procedure, shortened: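 Amastigotes harvested from infected hamster spleen infected primary peritoneal mouse macrophages (5×10^5 amastigotes/well, 2 h, 37 °C). Compounds then present 5 d at 37 °C, 5% CO2. Parasite burden counted by microscopy after Giemsa staining, as % of untreated controls; IC50 from sigmoidal variable-slope fit.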

[5] = system: Trypanosoma brucei rhodesiense STIB 900 strain; test: Trypanosoma brucei rhodesiense STIB 900 screening assay; conditions: STIB 900 bloodstream forms, 72 h, Alamar Blue, protocol of Example 114, read-out: Swiss TPH T b rhodesiense IC50
Protocol: Example 114. Trypanosoma brucei rhodesiense STIB 900 Screening Assay Procedure
The Trypanosoma brucei rhodesiense STIB 900 strain was isolated in 1982 from a human patient in Tanzania and after several mouse passages cloned and adapted to axenic culture conditions (Baltz, et al., EMBO Journal 4: 1273-1277 (1985); Thuita, et al., Acta Tropica 108: 6-10 (2008)). Minimum Essential Medium (50 μL) supplemented with 25 mM HEPES, 1 g/L additional glucose, 1% MEM non-essential amino acids (100×), 0.2 mM 2-mercaptoethanol, 1 mM Na-pyruvate and 15% heat inactivated horse serum was added to each well of a 96-well microtiter plate. Serial drug dilutions of seven 3-fold steps covering a range from 90 to 0.123 μg/mL were prepared. Then 10^4 bloodstream forms of T. b. rhodesiense STIB 900 in 50 μL was added to each well and the plate incubated at 37° C. under a 5% CO2 atmosphere for 72 h. 10 μL Alamar Blue (resazurin, 12.5 mg in 100 mL double-distilled water) was then added to each well and incubation continued for a further 2-4 h (Raz, et al., Acta Tropica 68: 139-47 (1997)). Then the plates were read with a Spectramax Gemini XS microplate fluorometer (Molecular Devices Corporation, Sunnyvale, Calif., USA) using an excitation wavelength of 536 nm and an emission wavelength of 588 nm. Data were transferred into the graphic program Softmax Pro (Molecular Devices), which calculated IC50 values.

| IC50 [4] [nM] | IC50 [5] [nM] | Compound | IC50 [1] [nM] | IC50 [2] [nM] | IC50 [3] [nM] |
| --- | --- | --- | --- | --- | --- |
| 3000 to 19900 | 100 to 250 | Cc1c(C(=O)Nc2ccc3c(c2)B(O)OC3)nnn1-c1cccc(C(F)(F)F)c1 [Example 87, N-(1-hydroxy-1,3-dihydrobenzo[c][1,2]oxaborol-6-yl)-5-methyl-1-(3-(trifluoromethyl)phenyl)-1H-1,2,3-triazole-4-carboxamide] | 100 to 300 | 510 to 10000 | 100 to 300 |
| < 3000 | < 100 | Cc1c(C(=O)Nc2ccc3c(c2)B(O)OC3)nnn1-c1ccc(Cl)cn1 [Example 83, 1-(5-Chloropyridin-2-yl)-N-(1-hydroxy-1,3-dihydrobenzo[c][1,2]oxaborol-6-yl)-5-methyl-1H-1,2,3-triazole-4-carboxamide] | < 100 | 510 to 10000 | < 100 |
| 20000 to 100000 | 260 to 2000 | Cc1c(C(=O)Nc2ccc3c(c2)B(O)OC3(C)C)nnn1-c1ccccc1 [Example 92, N-(1-hydroxy-3,3-dimethyl-1,3-dihydrobenzo[c][1,2]oxaborol-6-yl)-5-methyl-1-phenyl-1H-1,2,3-triazole-4-carboxamide] | 310 to 100000 | 510 to 10000 | 310 to 10000 |
| 3000 to 19900 | < 100 | Cc1nn(-c2ccccc2)nc1C(=O)Nc1ccc2c(c1)B(O)OC2 [Example 72, N-(1-hydroxy-1,3-dihydrobenzo[c][1,2]oxaborol-6-yl)-5-methyl-2-phenyl-2H-1,2,3-triazole-4-carboxamide] | < 100 | 201 to 500 | 100 to 300 |
| 3000 to 19900 | 100 to 250 | Cc1c(C(=O)Nc2ccc3c(c2)B(O)OC3)nnn1-c1ncccc1Cl [Example 82, 1-(3-Chloropyridin-2-yl)-N-(1-hydroxy-1,3-dihydrobenzo[c][1,2]oxaborol-6-yl)-5-methyl-1H-1,2,3-triazole-4-carboxamide] | < 100 | < 200 | 100 to 300 |
| < 3000 | 100 to 250 | COc1ccccc1-n1nnc(C(=O)Nc2ccc3c(c2)B(O)OC3)c1C [Example 88, N-(1-hydroxy-1,3-dihydrobenzo[c][1,2]oxaborol-6-yl)-1-(2-methoxyphenyl)-5-methyl-1H-1,2,3-triazole-4-carboxamide] | < 100 | 201 to 500 | 100 to 300 |

The next lines start with the molecule.

| Compound | IC50 [4] [nM] | IC50 [5] [nM] | IC50 [1] [nM] | IC50 [2] [nM] | IC50 [3] [nM] |
| --- | --- | --- | --- | --- | --- |
| O=C(Nc1ccc2c(c1)B(O)OC2)c1nnn(-c2ccccn2)c1CO [Example 55, N-(1-hydroxy-1,3-dihydrobenzo[c][1,2]oxaborol-6-yl)-5-(hydroxymethyl)-1-(pyridin-2-yl)-1H-1,2,3-triazole-4-carboxamide] | – | – | < 100 | < 200 | – |
| O=C(Nc1ccc2c(c1)B(O)OC2)c1cn(-c2ncccc2Cl)nn1 [Example 58, 1-(3-Chloropyridin-2-yl)-N-(1-hydroxy-1,3-dihydrobenzo[c][1,2]oxaborol-6-yl)-1H-1,2,3-triazole-4-carboxamide] | 3000 to 19900 | < 100 | < 100 | < 200 | < 100 |
| Cc1c(C(=O)Nc2ccc3c(c2)B(O)OC3)nnn1-c1cccc(C(F)(F)F)n1 [Example 48, N-(1-hydroxy-1,3-dihydrobenzo[c][1,2]oxaborol-6-yl)-5-methyl-1-(6-(trifluoromethyl)pyridin-2-yl)-1H-1,2,3-triazole-4-carboxamide] | – | – | 100 to 300 | 201 to 500 | – |
| O=C(Nc1ccc2c(c1)B(O)OC2)c1nnn(-c2ccccn2)c1CC(F)(F)F [Example 56, N-(1-hydroxy-1,3-dihydrobenzo[c][1,2]oxaborol-6-yl)-1-(pyridin-2-yl)-5-(2,2,2-trifluoroethyl)-1H-1,2,3-triazole-4-carboxamide] | – | – | 100 to 300 | 201 to 500 | – |
| O=C(Nc1ccc2c(c1)B(O)OC2)c1cn(-c2ccc(Cl)cn2)nn1 [Example 59, 1-(5-Chloropyridin-2-yl)-N-(1-hydroxy-1,3-dihydrobenzo[c][1,2]oxaborol-6-yl)-1H-1,2,3-triazole-4-carboxamide] | 3000 to 19900 | < 100 | < 100 | 201 to 500 | 100 to 300 |
| Cc1c(C(=O)Nc2ccc3c(c2)B(O)OC3(C)C)nnn1-c1ccccn1 [Example 85, N-(1-hydroxy-3,3-dimethyl-1,3-dihydrobenzo[c][1,2]oxaborol-6-yl)-5-methyl-1-(pyridin-2-yl)-1H-1,2,3-triazole-4-carboxamide] | 20000 to 100000 | 260 to 2000 | 310 to 100000 | 510 to 10000 | 310 to 10000 |
| COCc1c(C(=O)Nc2ccc3c(c2)B(O)OC3)nnn1-c1ccccn1 [Example 53, N-(1-hydroxy-1,3-dihydrobenzo[c][1,2]oxaborol-6-yl)-5-(methoxymethyl)-1-(pyridin-2-yl)-1H-1,2,3-triazole-4-carboxamide] | – | – | < 100 | < 200 | – |
| CC1(C)OB(O)c2cc(NC(=O)c3cn(-c4ccccn4)nn3)ccc21 [Example 62, N-(1-hydroxy-3,3-dimethyl-1,3-dihydrobenzo[c][1,2]oxaborol-6-yl)-1-(pyridin-2-yl)-1H-1,2,3-triazole-4-carboxamide] | 20000 to 100000 | 260 to 2000 | 310 to 100000 | 510 to 10000 | 310 to 10000 |
| O=C(Nc1ccc2c(c1)B(O)OC2)c1nnn(-c2ccccn2)c1C1CC1 [Example 54, 5-cyclopropyl-N-(1-hydroxy-1,3-dihydrobenzo[c][1,2]oxaborol-6-yl)-1-(pyridin-2-yl)-1H-1,2,3-triazole-4-carboxamide] | – | – | < 100 | 201 to 500 | – |
